Some test systems named below: COLO 205 colon; SNB-78 CNS; K-562 leukemia; NCI-H23 lung; DLD-1 colon; SNB-75 CNS; RPMI-8226 leukemia; U251 CNS; SNB-19 CNS; HT29 colon.
What all share (test): growth of human tumour cells (NCI), 48 h

The results in this text go back to PubChem BioAssay (NCI).

Molecules are shown by their SMILES. Where “and” joins values, the source holds several entries; their conditions need not be identical. Identical values can stand only once.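 Growth conditions: 96-well plates. Treatment: test compound, 48 hours, 5 concentrations. Analysis: linear interpolation between bracketing concentrations; unreached endpoints set to highest concentration. GI50 is the concentration that inhibits growth by half. TGI: concentration producing complete growth inhibition.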

Consider `CCCCCCCCCCCC(=O)OC(COC(N)=O)COc1ccc(Cl)cc1` (configuration not stated), for which the TGI in the experiment with COLO 205 colon is 37.5 µM; with SNB-78 CNS, 84.8 µM; in the experiment with K-562 leukemia it was 35.1 µM; in the experiment with NCI-H23 lung it was 46 µM; in the experiment with DLD-1 colon, > 100 µM; in the experiment with SNB-75 CNS it was > 100 µM. The TGI is 47 µM with RPMI-8226 leukemia, 52.7 µM with U251 CNS, 83 µM in the experiment on SNB-19 CNS and 40.6 µM in the experiment on HT29 colon.

Consider `COC(=O)N/N=C(/c1nc2ccc([N+](=O)[O-])cc2[nH]c1=O)C(O)c1ccc(OC)c(OC)c1` (configuration not stated), for which the TGI in the experiment with COLO 205 colon was > 76.9 µM; with SNB-78 CNS, > 100 µM; with K-562 leukemia, > 100 µM; with NCI-H23 lung it was > 100 µM; with DLD-1 colon it was > 100 µM; with SNB-75 CNS it was > 100 µM. The TGI in the experiment on RPMI-8226 leukemia is > 74.5 µM; with U251 CNS, > 100 µM; in the experiment on SNB-19 CNS, > 100 µM; in the experiment on HT29 colon, > 100 µM.

On to `NC(=O)c1ncn(Cc2ccccc2)c1CNC(N)=S`, for which the TGI in the experiment on COLO 205 colon, in the experiment on SNB-78 CNS, in the experiment on K-562 leukemia, with NCI-H23 lung, in the experiment with DLD-1 colon and in the experiment on SNB-75 CNS was > 100 µM in each case. In addition, the TGI with RPMI-8226 leukemia, in the experiment with U251 CNS, in the experiment on SNB-19 CNS and in the experiment on HT29 colon was > 100 µM throughout.

For the compound `O=C1c2ccccc2C(=O)c2c1ccc1c2N=C(c2ccc(Br)cc2)CC(c2cccc3ccccc23)N1` (configuration not stated), the TGI with COLO 205 colon, with SNB-78 CNS, in the experiment with K-562 leukemia, in the experiment on NCI-H23 lung, in the experiment on DLD-1 colon and in the experiment on SNB-75 CNS was > 100 µM throughout. The TGI in the experiment with RPMI-8226 leukemia, in the experiment on U251 CNS, with SNB-19 CNS and in the experiment on HT29 colon was > 100 µM in each case.

For the compound `Cn1cnc([N+](=O)[O-])c1Sc1nc2ccc([N+](=O)[O-])cc2[nH]1`, the TGI was 23.4 µM with COLO 205 colon; 81 µM in the experiment with SNB-78 CNS; 69.2 µM with K-562 leukemia; 72 µM in the experiment on NCI-H23 lung; 32.6 µM with DLD-1 colon; 81.8 µM in the experiment with SNB-75 CNS. Moreover, the TGI with RPMI-8226 leukemia is 67.5 µM; in the experiment on U251 CNS, > 100 µM; in the experiment on SNB-19 CNS it was > 100 µM; in the experiment with HT29 colon, > 100 µM.

Consider `CC1CC(c2ccc(Cl)c(Cl)c2)=Nc2ccccc2S1` (configuration not stated), for which the TGI in the experiment with COLO 205 colon, with SNB-78 CNS, in the experiment with K-562 leukemia, in the experiment with NCI-H23 lung, in the experiment with DLD-1 colon and in the experiment with SNB-75 CNS was > 100 µM in each case. Moreover, the TGI with RPMI-8226 leukemia, in the experiment on U251 CNS, in the experiment on SNB-19 CNS and in the experiment on HT29 colon was > 100 µM each time.

As for `CC1(C)CC(N2CCN(C3CC(C)(C)NC(C)(C)C3)CC2)CC(C)(C)N1`, the TGI with SNB-78 CNS, in the experiment with K-562 leukemia, in the experiment on NCI-H23 lung, with DLD-1 colon, with SNB-75 CNS and with RPMI-8226 leukemia was > 100 µM each time. For the same compound, the TGI in the experiment on U251 CNS, in the experiment with SNB-19 CNS and in the experiment with HT29 colon was > 100 µM each time.

For the compound `N#Cc1cn(-c2c3ccccc3nc3ccccc23)c(=O)[nH]c1=O`, the TGI is 64.3 µM with COLO 205 colon; 49.8 µM in the experiment on SNB-78 CNS; 23.3 µM in the experiment with K-562 leukemia; > 100 µM in the experiment on DLD-1 colon; 33.3 µM in the experiment with SNB-75 CNS; 75.8 µM with RPMI-8226 leukemia. Further, the TGI worked out at 71 µM in the experiment with U251 CNS, 90.7 µM in the experiment on SNB-19 CNS and 28.5 µM with HT29 colon.

Turning to `Cc1ccc2nc3c(C)cc(=O)cc-3sc2c1`, the TGI with COLO 205 colon is 72.2 µM; in the experiment with SNB-78 CNS, > 100 µM; with K-562 leukemia, 31.5 µM; in the experiment on NCI-H23 lung it was 52.8 µM; in the experiment with DLD-1 colon it was > 100 µM; in the experiment with SNB-75 CNS, 69.2 µM. In addition, the TGI with U251 CNS, with SNB-19 CNS and in the experiment on HT29 colon was > 100 µM in each case.

Regarding `CCc1ccc([O-])c(C=NCCCN(C)CCCN=Cc2cc(C)ccc2[O-])c1.[Co+3].[N-]=[N+]=[N-]`, the GI50 is 50 µg/mL and > 150 µg/mL in the experiment on COLO 205 colon; > 150 µg/mL in the experiment on SNB-78 CNS; 5 µg/mL and 74 µg/mL in the experiment with K-562 leukemia; 50 µg/mL and 33.8 µg/mL in the experiment with NCI-H23 lung; 61 µg/mL in the experiment on DLD-1 colon; 1.38 µg/mL and 10 µg/mL in the experiment on SNB-75 CNS. Moreover, the GI50 with RPMI-8226 leukemia was 50 µg/mL and 73.5 µg/mL; in the experiment with U251 CNS it was 20.1 µg/mL and 33 µg/mL; with SNB-19 CNS, 40.6 µg/mL and 61.6 µg/mL; with HT29 colon it was 50 µg/mL and > 150 µg/mL. In addition, the TGI in the experiment on COLO 205 colon is 50 µg/mL and > 150 µg/mL; in the experiment on SNB-78 CNS, > 150 µg/mL; in the experiment on NCI-H23 lung it was 50 µg/mL and 129 µg/mL; with DLD-1 colon, > 150 µg/mL; in the experiment with RPMI-8226 leukemia, 50 µg/mL and > 150 µg/mL; in the experiment on U251 CNS, 50 µg/mL and 123 µg/mL. The TGI in the experiment on SNB-19 CNS is 50 µg/mL and 123 µg/mL; in the experiment on HT29 colon, 50 µg/mL and > 150 µg/mL.

On to `CCCCC(C(=O)CCC(=O)Nc1ccc(Cl)cc1)C(=O)C(C)C` (configuration not stated), for which the TGI in the experiment on COLO 205 colon, with SNB-78 CNS, in the experiment with K-562 leukemia, in the experiment on NCI-H23 lung, in the experiment with DLD-1 colon and in the experiment with SNB-75 CNS was > 100 µM each time. In addition, the TGI in the experiment with RPMI-8226 leukemia, in the experiment with U251 CNS, with SNB-19 CNS and in the experiment on HT29 colon was > 100 µM in each case.

As to `O=C1C(Br)=CC2(C=C1Br)CCNc1c(O)c3c4c(c12)=NCCC=4C=N3`, the TGI was 0.0289 µM in the experiment with COLO 205 colon; 0.656 µM in the experiment on SNB-78 CNS; 0.0921 µM in the experiment with K-562 leukemia; 0.287 µM with NCI-H23 lung; 0.0798 µM in the experiment with DLD-1 colon; 2.16 µM in the experiment on SNB-75 CNS. In addition, the TGI was 0.212 µM in the experiment on RPMI-8226 leukemia, 1.07 µM with U251 CNS, 3.97 µM with SNB-19 CNS and 0.168 µM in the experiment with HT29 colon.

Take `COc1ccc(/C=C2\CCC(Cc3ccccc3)(CN(C)C)C2=O)cc1` (configuration not stated): the TGI is > 74.8 µM in the experiment on COLO 205 colon; > 100 µM with SNB-78 CNS; 78 µM with K-562 leukemia; > 100 µM in the experiment on NCI-H23 lung; > 100 µM in the experiment on DLD-1 colon; > 100 µM in the experiment on SNB-75 CNS. The TGI with RPMI-8226 leukemia is 62.9 µM; with U251 CNS it was > 100 µM; in the experiment on SNB-19 CNS, > 100 µM; with HT29 colon, > 87.8 µM.

As for `COc1c(C)c(O)c2c(c1C)OC(c1ccccc1)CC2=O` (configuration not stated), the TGI in the experiment with SNB-78 CNS, with K-562 leukemia, in the experiment on NCI-H23 lung, in the experiment on DLD-1 colon, with SNB-75 CNS and in the experiment on RPMI-8226 leukemia was > 100 µM each time. For the same compound, the TGI in the experiment on U251 CNS and in the experiment with HT29 colon was > 100 µM each time.

As for `Nc1nc2ncn(CC(O)COC(=O)c3ccccc3)c2c(=O)[nH]1` (configuration not stated), the TGI with COLO 205 colon, in the experiment on SNB-78 CNS, with K-562 leukemia, in the experiment on NCI-H23 lung, in the experiment with DLD-1 colon and with SNB-75 CNS was > 100 µM in each case. Further, the TGI with RPMI-8226 leukemia, with U251 CNS and in the experiment on HT29 colon was > 100 µM each time.

As for `Nc1ccc(C(=O)Nc2ccccc2N)cc1`, the TGI in the experiment on COLO 205 colon was 45.2 µM; in the experiment on SNB-78 CNS, > 100 µM; in the experiment with K-562 leukemia, > 100 µM; with NCI-H23 lung, > 100 µM; in the experiment on DLD-1 colon, > 100 µM; in the experiment on SNB-75 CNS, > 93.1 µM. In addition, the TGI in the experiment on RPMI-8226 leukemia is 98.8 µM; in the experiment on U251 CNS, 59.8 µM; in the experiment on SNB-19 CNS, > 100 µM; in the experiment with HT29 colon, > 100 µM.

Take `O=C(O)COc1ccc(C(=O)/C(SS/C(C(=O)c2ccc(OCC(=O)O)c(Cl)c2Cl)=C2\C=C(c3ccccc3Cl)SS2)=C2/C=C(c3ccccc3Cl)SS2)c(Cl)c1Cl`: the TGI in the experiment on COLO 205 colon was > 77.1 µM; in the experiment with SNB-78 CNS it was 52.5 µM; in the experiment on K-562 leukemia, > 49 µM; in the experiment on NCI-H23 lung, 60.2 µM; with DLD-1 colon it was > 65.4 µM; in the experiment on SNB-75 CNS, > 100 µM. Also, the TGI in the experiment on RPMI-8226 leukemia is 42.5 µM; in the experiment with U251 CNS, 36.5 µM; with SNB-19 CNS, > 100 µM; in the experiment on HT29 colon, > 31.6 µM.

Take `COC(=O)C1(O)c2ccccc2N=C2C1CCN2C` (configuration not stated): the TGI is > 100 µM in the experiment on COLO 205 colon; > 100 µM in the experiment with SNB-78 CNS; > 100 µM with K-562 leukemia; > 100 µM in the experiment on NCI-H23 lung; > 100 µM in the experiment with DLD-1 colon; 87.8 µM in the experiment on SNB-75 CNS. The TGI with RPMI-8226 leukemia, in the experiment on U251 CNS, in the experiment on SNB-19 CNS and with HT29 colon was > 100 µM throughout.
